Laboratory results reported in article PMC12858467, “In vitro toxicokinetics and metabolic profiling of methoxycathinones and methylthiocathinones using human liver systems and hyphenated mass spectrometry” (Archives of Toxicology, 2025).
Read-outs that look alike come from different tables or passages of the source.

How the values were obtained:
[1] = In vitro plasma protein binding (ultrafiltration, Centrifree); type: in vitro ADME; details: human, pooled human blood plasma, 30 min, 37 °C, ultrafiltration
Protocol: (§1) PPB was investigated according to a previous study with minor modifications (Kroesen et al. [2025]). Fresh and pooled human blood plasma (450 µL) was spiked with 50 µL of a 5 µM methanolic solution of 4MeO-NE-BP, 4MeO-αP-BP, 4MeO-αP-VP, 4MeS-NE-BP, 4MeS-αP-BP, or 4MeS-αMor-PrP. The mixture was incubated for 30 min at 37 °C and with gentle shaking at 200 rpm. […] The Centrifree devices were centrifuged for 35 min at 1600 × g to obtain 100 µL of the ultrafiltrate (UF). […] Experiments were performed in quadruplicate. Fraction unbound (fu) and PPB were determined by comparing the area ratios of the compound and trimipramine-d3 as an internal standard in the UF and GA using the following equations:1 fu=peak area ratiocompoundUF/ISUF/peak area ratiocompoundGA/ISGA 2 PPB[\%]=1-fu∗100.

[2] = tested on: plasma proteins (pooled human blood plasma); experiment: as above; type: in vitro ADME; details: for PPB, %: 30 min, 37 °C, ultrafiltration
Protocol: as §1

[3] = tested on: pooled human liver S9 fraction (pHLS9) and HepaRG cells; experiment: In vitro metabolism by pHLS9 and HepaRG cells (LC-HRMS/MS metabolite identification); type: in vitro ADME; details: 25 µM substrate
[4] = tested on: dopamine and serotonin transporters; set-up: method as in Wojcieszak et al. [2021]; details: ref Wojcieszak et al. [2021]; cited from earlier work
HepaRG cells = experiment: Incubations using HepaRG cells; details: 25 µM parent, 24 h
Protocol: Cell incubations were performed in a monolayer assay (Kroesen et al. [2025]) and in accordance with the manufacturer’s instructions.
All incubations were performed in triplicate, with each well containing 0.5% (v/v) DMSO. Following incubation, 50 µL of the medium supernatant was transferred to a new reaction tube and precipitated with 30 µL of acetonitrile cooled to −20 °C, containing 2.5 µM trimipramine-d3 as an internal standard. […] The mixture was vortexed and centrifuged for 2 min at 18,407 × g. A volume of 70 µL of the supernatant was transferred into an autosampler vial and 5 µL was injected onto the LC–HRMS/MS system.
HepaRG cells were thawed and resuspended in 13.5 mL (~ 740,000 cells/mL) thaw
and seed medium at 37 °C. Thaw and seed medium consisted of Williams E medium,
100 U/mL penicillin, 100 µg/mL streptomycin, GlutaMAX, and HPRG670 supplement.
Cells were handled under sterile conditions using a laminar flow bench class II (Thermo
Scientific, TF, Schwerte, Germany). Aliquots of 100 µL cell suspension were seeded
on collagen-coated 96-well plates (~ 74,000 cells/well). Evaporation was minimized by
filling the outer wells with 100 µL thaw and seed medium. Cells were preincubated for
4 h in an incubator (Binder, Tuttlingen, Germany) at 37 °C, 95 % air humidity, and 5 %
CO2. After preincubation, 50 µL of the thaw and seed medium was replaced with 50 µL
solution of each cathinone (25 µM) in thaw and seed medium, followed by an
incubation for 24 h at 37 °C, 95 % air humidity, and 5 % CO2 atmosphere.
A Thermo Fisher ( TF, Dreieich, Germany) Dionex UltiMate 3000 RS pump consisting
of a degasser, a quaternary pump, and an autosampler, coupled to a TF Q Exactive
Plus system equipped with a heated electrospray ionization (HESI)-II source were
used. A mass calibration was done according to the manufacturer's recommendations
using external mass calibration prior to analysis. Gradient elution was performed on a
TF Accucore PhenylHexyl column (100 mm x 2.1 mm, 2.6 μm) with a 2 mM aqueous
ammonium formate solution containing 0.1 % (v/v) formic acid (pH 3, eluent A) and 2
mM ammonium formate solution in acetonitrile/methanol (50:50, v/v) containing 0.1 %
(v/v) formic acid, and 1 % (v/v) water (eluent B). The gradient was stepped as follows:
hold 99 % A. Initial flow rate from 0–9.5 min was 500 μL/min and final flow rate was
800 μL/min from 9.5–11.5 min. Mass spectrometry was performed using full scan data
and a subsequent data-dependent acquisition (DDA) with priority to mass-to-charge
ratios (m/z) of parent compounds and their expected metabolites. The inclusion list
contained m/z values of likely formed metabolites such as O- or S-desmethyl, hydroxy,
and oxo reduction metabolites (phase I) as well as sulfates, glucuronides (phase II),
and combinations thereof.
TF Xcalibur Qual Browser software […]

[5] = read-out: fu (unbound fraction)

| Compound | fraction unbound at 30 min, 0.5 µM ([1]; read-out: PPB, % (converted)) | fraction unbound at 30 min, 0.5 µM [1, 5] | Plasma protein binding, class in words [2] | PPB, % [2] [%] | metabolic reactions (metabolite IDs) identified [3] | number of metabolites tentatively identified [3] | Phase II metabolism [3] | monoamine uptake inhibition, relative potency at transporters [4] | metabolite detection in HepaRG incubations (HepaRG cells) |
| --- | --- | --- | --- | --- | --- | --- | --- | --- | --- |
| CCC(C(=O)c1ccc(OC)cc1)N1CCCC1 (stereo not drawn) [Compound 4MeO-αP-BP, 4’-methoxy-α-pyrrolidinobutyrophenone] | > 0.5 | 0.54 | low | 46 | hydroxylation (MO2.1), O-demethylation (MO2.2), N-oxidation (MO2.3), lactam formation (MO2.4), and hydroxylation + N-oxidation (MO2.5) | 5 |  |  |  |
| CCCC(C(=O)c1ccc(OC)cc1)N1CCCC1 (stereo not drawn) [Compound 4MeO-αP-VP, 4’-methoxy-α-pyrrolidinovalerophenone] |  | 0.39 | moderate | 61 | hydroxylation (MO3.1, MO3.3), O-demethylation (MO3.2), N-oxidation (MO3.4), lactam formation (MO3.5), O-demethylation + aromatic hydroxylation (MO3.6), hydroxylation + N-oxidation (MO3.7), and O-demethylation + dihydroxylation at the pyrrolidine ring (MO3.8) | 10 | O-sulfation (MO3.9) and O-glucuronidation (MO3.10) after O-demethylation | greater potency in dopamine than serotonin transporters |  |
| CCCC(C(=O)c1ccc(OS(=O)(=O)O)cc1)N1CCCC1 (centres unmarked) [MO3.9] |  |  |  |  |  |  |  |  | observed in HepaRG incubations |
